Measured values: patent US7858635B2 (priority 2005, dated 2010)

Experiments:
[1] = biological target: T1, M1 muscarinic receptor (Homo sapiens, UniProt P11229); experiment: Functional mobilization of intracellular calcium (FLIPR, Fluo-3), M1-CHO cells; assay type: cell-based; details: compound nos. 1-454; for Emax / M1 Efficacy: 100% efficacy is the maximum response obtained with the Carbachol control; for Emax: read-out: M1 Efficacy
T1 construct: expressed in transfected cells; host or cells: CHO cells (M1-CHO, under zeocin and G418 selection)
T1 sequence (P11229 1-460): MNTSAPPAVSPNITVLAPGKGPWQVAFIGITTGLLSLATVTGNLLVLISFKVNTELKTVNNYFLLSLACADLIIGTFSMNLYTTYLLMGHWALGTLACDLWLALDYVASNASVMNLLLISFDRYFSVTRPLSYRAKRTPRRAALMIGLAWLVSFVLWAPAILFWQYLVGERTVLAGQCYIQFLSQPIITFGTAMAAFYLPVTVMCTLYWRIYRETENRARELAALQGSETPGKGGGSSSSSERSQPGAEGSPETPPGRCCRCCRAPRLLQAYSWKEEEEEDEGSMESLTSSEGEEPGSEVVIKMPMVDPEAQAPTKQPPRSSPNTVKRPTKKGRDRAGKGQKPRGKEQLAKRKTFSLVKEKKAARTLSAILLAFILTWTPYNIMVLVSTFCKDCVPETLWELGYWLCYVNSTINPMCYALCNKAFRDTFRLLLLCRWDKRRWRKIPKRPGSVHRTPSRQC
Procedure, shortened: (§1)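 CHO lines stably carrying the muscarinic subtype, dye-loaded with Fluo-3 at 37° C for 60-90 min, receive test compound in 0.5% DMSO. Agonist effects are read directly; antagonist effects against carbachol at EC80 after 15 min pre-incubation.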

[2] = biological target: T2, M4 muscarinic receptor (Homo sapiens, UniProt P08173); experiment: Functional mobilization of intracellular calcium (FLIPR, Fluo-3), M4-CHO cells; assay type: cell-based; details: compound nos. 1-454; for Emax / M4 Efficacy: 100% efficacy is the maximum response obtained with the Carbachol control; for Emax: read-out: M4 Efficacy
T2 construct: expressed in transfected cells; host or cells: CHO cells (M4-CHO, under puromycin, zeocin and blasticidin selection)
T2 sequence (P08173 1-479): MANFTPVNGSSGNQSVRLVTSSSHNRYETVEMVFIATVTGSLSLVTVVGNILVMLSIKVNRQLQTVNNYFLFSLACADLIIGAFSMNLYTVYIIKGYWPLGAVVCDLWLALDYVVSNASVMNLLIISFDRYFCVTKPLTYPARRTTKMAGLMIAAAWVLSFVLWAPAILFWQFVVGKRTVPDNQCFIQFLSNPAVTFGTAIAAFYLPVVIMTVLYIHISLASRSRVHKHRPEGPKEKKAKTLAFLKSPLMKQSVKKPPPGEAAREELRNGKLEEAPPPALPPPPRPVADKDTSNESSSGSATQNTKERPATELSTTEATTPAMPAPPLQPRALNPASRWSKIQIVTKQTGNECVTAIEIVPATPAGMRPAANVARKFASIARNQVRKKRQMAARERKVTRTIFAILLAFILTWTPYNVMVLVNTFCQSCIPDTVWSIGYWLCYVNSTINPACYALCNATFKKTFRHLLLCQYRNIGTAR
Procedure, shortened: as §1

Compound: CC(=O)N1CC2(CCN(CC3CCCCC3)CC2)c2cc(F)ccc21 [compound 393]
- M1 Activity [1]: +++ (activity was measured to be less than or equal to 0.7 μM)
- Emax [1]: 65 to 85%
- M4 Activity [2]: + (activity was measured to be greater than or equal to 4.0 μM)
- Emax [2]: < 55%

Compound: CC(=O)N1CC2(CCN(C3CCN(C(=O)OCCF)C3)CC2)c2cc(F)ccc21 (stereo not shown) [compound 394]
- M1 Activity [1]: +++ (activity was measured to be less than or equal to 0.7 μM)
- Emax [1]: < 65%
- M4 Activity [2]: ++ (activity was measured to be between 0.1 μM and 4.0 μM)
- Emax [2]: < 55%

Compound: CC(=O)N1CC2(CCN(C3CCCN(C(=O)OC(C)C)CC3)CC2)c2cc(F)ccc21 (stereo not shown) [compound 395]
- M1 Activity [1]: +++ (activity was measured to be less than or equal to 0.7 μM)
- Emax [1]: < 65%
- M4 Activity [2]: + (activity was measured to be greater than or equal to 4.0 μM)
- Emax [2]: < 55%

Compound: Cc1ccc2c(c1)C1(CCN(C3CC4CCC(C4)C3)CC1)CN2 (stereo not shown) [compound 397]
- M1 Activity [1]: ++ (activity was measured to be between 0.7 μM and 3.0 μM)
- Emax [1]: 65 to 85%
- M4 Activity [2]: + (activity was measured to be greater than or equal to 4.0 μM)
- Emax [2]: < 55%

Compound: CC(=O)N1CC2(CCN(C3CCN(C(=O)O[C@H]4CCOC4)CC3)CC2)c2cc(C)ccc21 [compound 398]
- M1 Activity [1]: ++ (activity was measured to be between 0.7 μM and 3.0 μM)
- Emax [1]: < 65%
- M4 Activity [2]: + (activity was measured to be greater than or equal to 4.0 μM)
- Emax [2]: < 55%

Compound: CC(=O)N[C@H]1CC2(CCN(CC3CCN(C(=O)OC(C)C)CC3)CC2)c2ccccc21 [compound 399]
- M1 Activity [1]: ++ (activity was measured to be between 0.7 μM and 3.0 μM)
- Emax [1]: 65 to 85%
- M4 Activity [2]: ++ (activity was measured to be between 0.1 μM and 4.0 μM)
- Emax [2]: < 55%

Compound: CCNC(=O)N1CC2(CCN(C3CC4CCC3C4)CC2)c2cc(C)ccc21 (stereo not shown) [compound 400]
- M1 Activity [1]: + (activity was measured to be greater than or equal to 3.0 μM)
- Emax [1]: < 65%
- M4 Activity [2]: + (activity was measured to be greater than or equal to 4.0 μM)
- Emax [2]: < 55%

Compound: CCOC(=O)N1CCC(N2CCC3(CC2)CN(C(=O)c2ccc4c(c2)OCO4)c2ccc(F)cc23)CC1 [compound 401]
- M1 Activity [1]: +++ (activity was measured to be less than or equal to 0.7 μM)
- Emax [1]: 65 to 85%
- M4 Activity [2]: + (activity was measured to be greater than or equal to 4.0 μM)
- Emax [2]: < 55%

Compound: CC(C)OC(=O)N1C2CCC1CC(N1CCC3(CC1)CN(C(=O)O[C@@H]1CCOC1)c1ccc(F)cc13)C2 (stereo partly shown) [compound 402]
- M1 Activity [1]: ++ (activity was measured to be between 0.7 μM and 3.0 μM)
- M1 Efficacy [1]: ++ (efficacy was calculated to be between 85% and 65%)
- M4 Activity [2]: + (activity was measured to be greater than or equal to 4.0 μM)
- M4 Efficacy [2]: + (efficacy was calculated to be 55% or less)

Compound: CC(=O)N1CC2(CCN(CC3CCN(C(=O)O[C@@H]4CCOC4)CC3)CC2)c2cc(C)ccc21 [compound 403]
- M1 Activity [1]: +++ (activity was measured to be less than or equal to 0.7 μM)
- Emax [1]: 65 to 85%
- M4 Activity [2]: + (activity was measured to be greater than or equal to 4.0 μM)
- Emax [2]: < 55%

Compound: CC(=O)N1CC2(CCN(CC3CCN(C(=O)OC(C)C)CC3)CC2)c2cc(C)ccc21 [compound 404]
- M1 Activity [1]: ++ (activity was measured to be between 0.7 μM and 3.0 μM)
- Emax [1]: < 65%
- M4 Activity [2]: + (activity was measured to be greater than or equal to 4.0 μM)
- Emax [2]: < 55%

Compound: CCCOC(=O)N1C2CCC1CC(N1CCC3(CC1)CN(C(=O)OCCOC)c1ccc(F)cc13)C2 (stereo not shown) [compound 405]
- M1 Activity [1]: ++ (activity was measured to be between 0.7 μM and 3.0 μM)
- Emax [1]: < 65%
- M4 Activity [2]: + (activity was measured to be greater than or equal to 4.0 μM)
- Emax [2]: < 55%

Compound: C/C=C\c1ccc2c(c1)C1(CCN(C3CCN(C(=O)OCC)CC3)CC1)CN2C(C)=O [compound 407]
- M1 Activity [1]: ++ (activity was measured to be between 0.7 μM and 3.0 μM)
- Emax [1]: < 65%
- M4 Activity [2]: + (activity was measured to be greater than or equal to 4.0 μM)
- Emax [2]: < 55%

Compound: CC(=O)NC1CC2(CCN(C[C@@H]3C[C@H]4C=C[C@H]3C4)CC2)c2ccccc21 (stereo partly shown) [compound 408]
- M1 Activity [1]: +++ (activity was measured to be less than or equal to 0.7 μM)
- Emax [1]: 65 to 85%
- M4 Activity [2]: +++ (activity was measured to be less than or equal to 0.1 μM)
- Emax [2]: 55 to 70%

Compound: CCOC(=O)N1C2CCC1CC(N1CCC3(CC1)CN(C(=O)OC1CCC1)c1ccc(F)cc13)C2 (stereo not shown) [compound 409]
- M1 Activity [1]: +++ (activity was measured to be less than or equal to 0.7 μM)
- Emax [1]: > 85%
- M4 Activity [2]: +++ (activity was measured to be less than or equal to 0.1 μM)
- Emax [2]: > 70%

Compound: CCOC(=O)N1CCC(N2CCC3(CC2)CN(C(=O)c2cccc(F)c2)c2ccc(F)cc23)CC1 [compound 410]
- M1 Activity [1]: ++ (activity was measured to be between 0.7 μM and 3.0 μM)
- Emax [1]: < 65%
- M4 Activity [2]: ++ (activity was measured to be between 0.1 μM and 4.0 μM)
- Emax [2]: < 55%

Compound: Cc1cc(C(=O)N2CC3(CCN(C4CC5CCC(C4)N5C(=O)O[C@H]4CCOC4)CC3)c3cc(F)ccc32)nn1C (stereo partly shown) [compound 411]
- M1 Activity [1]: +++ (activity was measured to be less than or equal to 0.7 μM)
- M1 Efficacy [1]: + (efficacy was calculated to be 65% or less)
- M4 Activity [2]: ++ (activity was measured to be between 0.1 μM and 4.0 μM)
- M4 Efficacy [2]: + (efficacy was calculated to be 55% or less)

Compound: COCCOC(=O)N1CCC(CN2CCC3(CC2)C[C@H](NC(C)=O)c2ccccc23)CC1 [compound 412]
- M1 Activity [1]: ++ (activity was measured to be between 0.7 μM and 3.0 μM)
- Emax [1]: < 65%
- M4 Activity [2]: + (activity was measured to be greater than or equal to 4.0 μM)
- Emax [2]: < 55%

Compound: CCOC(=O)N1CCC(N2CCC3(CC2)CN(C(C)=O)c2ccc(F)cc23)CC1 [compound 413]
- M1 Activity [1]: +++ (activity was measured to be less than or equal to 0.7 μM)
- Emax [1]: < 65%
- M4 Activity [2]: ++ (activity was measured to be between 0.1 μM and 4.0 μM)
- Emax [2]: < 55%

Compound: CCOC(=O)N1CCC(CN2CCC3(CCc4ccccc43)CC2)CC1 [compound 414]
- M1 Activity [1]: + (activity was measured to be greater than or equal to 3.0 μM)
- Emax [1]: < 65%
- M4 Activity [2]: + (activity was measured to be greater than or equal to 4.0 μM)
- Emax [2]: < 55%

Compound: Clc1ccc2c(c1)C1(CCN(CC3CCOCC3)CC1)CO2 [compound 415]
- M1 Activity [1]: + (activity was measured to be greater than or equal to 3.0 μM)
- Emax [1]: < 65%
- M4 Activity [2]: + (activity was measured to be greater than or equal to 4.0 μM)
- Emax [2]: < 55%

Compound: Fc1ccc2c(c1)C1(CCN(C3CC4CCC3C4)CC1)CN2 (stereo not shown) [compound 416]
- M1 Activity [1]: + (activity was measured to be greater than or equal to 3.0 μM)
- Emax [1]: < 65%
- M4 Activity [2]: + (activity was measured to be greater than or equal to 4.0 μM)
- Emax [2]: < 55%

Compound: CCOC(=O)N1C2CCC1CC(N1CCC3(CC1)CN(C(C)=O)c1ccc(Cl)cc13)C2 (stereo not shown) [compound 417]
- M1 Activity [1]: ++ (activity was measured to be between 0.7 μM and 3.0 μM)
- Emax [1]: < 65%
- M4 Activity [2]: + (activity was measured to be greater than or equal to 4.0 μM)
- Emax [2]: < 55%

Compound: CC(=O)N1CC2(CCN(C3CCN(C(=O)O[C@H]4CCOC4)CC3)CC2)c2cc(F)ccc21 [compound 418]
- M1 Activity [1]: + (activity was measured to be greater than or equal to 3.0 μM)
- Emax [1]: < 65%
- M4 Activity [2]: + (activity was measured to be greater than or equal to 4.0 μM)
- Emax [2]: < 55%

Compound: COCCOC(=O)N1CCC(CN2CCC3(CC2)CN(C(C)=O)c2ccc(C)cc23)CC1 [compound 419]
- M1 Activity [1]: + (activity was measured to be greater than or equal to 3.0 μM)
- Emax [1]: < 65%
- M4 Activity [2]: + (activity was measured to be greater than or equal to 4.0 μM)
- Emax [2]: < 55%
